Test results from patent US10221137B2, “Herbicidal phenylpyridines” (BASF SE, priority 2015, dated 2019).

How the values were obtained:
Assay in all cases: greenhouse experiment, post-emergence treatment
Type in all cases: in vivo
Conditions in all cases: application rate of 16 g/ha, post-emergence method; scale from 0 to 100
[1] = system: Amaranthus retroflexus
Description: (§1) The seeds of the test plants were sown separately for each species. For the post-emergence treatment, the test plants were first grown to a height of 3 to 15 cm, depending on the plant habit, and only then treated with the active ingredients which had been suspended or emulsified in water. For this purpose, the test plants were either sown directly and grown in the same containers, or they were first grown separately as seedlings and transplanted into the test containers a few days prior to treatment. Depending on the species, the plants were kept at 10-25° C. or 20-35° C., respectively. The test period extended over 2 to 4 weeks. During this time, the plants were tended, and their response to the individual treatments was evaluated. Evaluation was carried out using a scale from 0 to 100. 100 means no emergence of the plants, or complete destruction of at least the aerial moieties, and 0 means no damage, or normal course of growth. A good herbicidal activity is given at values of at least 70 and a very good herbicidal activity is given at values of at least 85. The plants used in the greenhouse experiments were of the following species: [table]

[2] = system: Chenopodium album
Description: as §1

[3] = system: Setaria viridis
Description: as §1

Row | SMILES | herbicidal activity against Amaranthus retroflexus [1] | herbicidal activity against Chenopodium album [2] | herbicidal activity against Setaria viridis [3]
1 | COC(=O)C(OC)Oc1cc(-c2ncc(Cl)cc2Cl)ccc1Cl (racemic) [Example 6] | very good herbicidal activity (a very good herbicidal activity is given at values of at least 85) | good herbicidal activity (A good herbicidal activity is given at values of at least 70) | very good herbicidal activity (a very good herbicidal activity is given at values of at least 85)
2 | COc1ccc(CNC(=O)C(OC)Oc2cc(-c3ncc(C(F)(F)F)cc3Cl)c(F)cc2Cl)cc1 (stereo not drawn) [Example 44] | very good herbicidal activity (a very good herbicidal activity is given at values of at least 85) | very good herbicidal activity (a very good herbicidal activity is given at values of at least 85) | good herbicidal activity (A good herbicidal activity is given at values of at least 70)
